Read-outs that look alike come from different tables or passages of the source.
Legend:
Type in all cases: cell-based
[1] = test system: human multiple myeloma cell line U266B1; test: U266 Cell Viability Assay; conditions: U-266, 48 hr, U266B1 cells, Celltiter-Glo, read-out: 48 hr U266 Viability Celltiter-Glo: Mean EC50
Outline: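 U266B1 myeloma cells treated with compound dilutions in DMSO/media for 48 h at 37 °C, 5% CO2. Viability read by CellTiter-Glo luminescence. Stereochemically undefined structures were tested as stereoisomer mixtures.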

[2] = test system: TNFα-FL/Gaussia Luciferase; test: Dox Induced TNFα-FL-Gluc Assay; conditions: 293FRT/TO cells, read-out: 24 hr Dox Inducible TNFaFLGluc 293FRT/TO: Mean IC50
Outline: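 A stable T-REx cell line carrying doxycycline-inducible TNFα-FL/Gaussia luciferase was plated the day before assay. Compound dilutions in DMSO/media containing doxycycline were then added and incubated at 37° C, 5% CO2.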

[3] = test system: HER3-ss+4aa/Gaussia Luciferase; test: Dox-Induced Her3-ss-Gluc Assay; conditions: 293FRT/TO cells, read-out: 24 hr Dox Inducible Her3(ss + 4)Gluc 293FRT/TO: Mean IC50
Outline: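 Stable T-REx cell line carrying a doxycycline-regulated HER3-ss+4aa/Gaussia luciferase insert, plated the day before assay. Compound dilutions in DMSO/media with doxycycline added, then incubated at 37° C., 5% CO2. Stereoisomer mixtures tested where stereochemistry is not drawn.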

[4] = test system: IL-2-FL/Gaussia Luciferase; test: Dox Induced IL2-FL-Gluc Assay; conditions: 293FRT/TO cells, read-out: 24 hr Dox Inducible IL2FLGIuc 293FRT/TO: Mean IC50
Outline: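 Stable T-REx cell line expressing doxycycline-inducible IL-2-FL/Gaussia luciferase cDNA, plated the day before assay. Compound dilutions in DMSO/media containing doxycycline added and incubated at 37° C., 5% CO2. Unspecified stereochemistry means data refer to a stereoisomer mixture.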

[5] = test system: human multiple myeloma cell line NCI-H929; test: H929 Cell Viability Assay; conditions: 48 hr, NCI-H929 cells, Celltiter-Glo, read-out: 48 hr H929 Viability Celltiter-Glo: Mean EC50
Description: Plates were incubated at 37° C., 5% CO2 for 48 hours. After 48 hours, Celltiter-Glo® (Promega) was added to each well and luciferase signal was quantified using Tecan Infinite M1000 Pro for cell viability determination.
For chemical structures that include one or more stereoisomers, but are illustrated without indicating stereochemistry, the assay data refers to a mixture of stereoisomers.

[6] = test system: PD1-ss+10aa/Gaussia Luciferase; test: Dox-Induced PD1-ss-Gluc Assay; conditions: 293FRT/TO cells, read-out: 24 hr Dox Inducible PD1ssGluc 293FRT/TO: Mean IC50
Outline: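 Stable cell line carrying PD1-ss+10aa/Gaussia luciferase cDNA under T-REx (doxycycline-inducible) control, plated the day before assay. Compound dilutions in DMSO/media containing doxycycline added and incubated at 37° C, 5% CO2. Undefined stereocentres: data refer to stereoisomer mixtures.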

[7] = 24 hr doxycycline induction, Gaussia luciferase signal

Structure (SMILES)	EC50 [1]	IC50 [2, 7]	IC50 [3, 7]	IC50 [4, 7]	EC50 [5]	IC50 [6, 7]	IC50 ([2]; 24 hr, doxycycline-induced)	IC50 ([3]; 24 hr, doxycycline-induced)	IC50 ([4]; 24 hr, doxycycline-induced)	IC50 ([6]; 24 hr, doxycycline-induced)
O=C(Nc1nc(/C=C/c2ccc3c(c2)OCO3)cs1)c1cccn1Cc1ccncc1 [Compound A234, N-(4-(2-(benzo[d][1,3]dioxo1-5-yl)vinyl)thiazol-2-yl)-1-(pyridin-4-ylmethyl)-1H-pyrrole-2-carboxamide]	> 25 µM	> 25 µM	216 nM	341 nM	4.49 µM	63 nM	–	–	–	–
O=C(Nc1nc(C2CC2c2ccccc2)cs1)c1cccn1CCCc1ccncc1 [Compound A215, N-(4-((1R,2R)-2-phenylcyclopropypthiazol-2-yl)-1-(3-(pyridin-4-yl)propyl)-1H-pyrrole-2-carboxamide]	> 25 µM	2.49 µM	720 nM	1250 nM	13.1 µM	443 nM	–	–	–	–
CC(C)OC(C)(C)c1csc(NC(=O)c2cccn2Cc2ccnc3ccccc23)n1 [Compound A90, N-(4-(2-isopropoxypropan-2-yl)thiazol-2-yl)-1-(quinolin-4-ylmethyl)-1H-pyrrole-2-carboxamide]	> 25 µM	> 25 µM	> 25000 nM	> 25000 nM	16.9 µM	10000 nM	–	–	–	–
CCN(C(=O)c1cccn1Cc1ccncc1)c1nccs1 [Compound B14]	> 25 µM	–	–	–	> 25 µM	–	> 25 µM	> 25000 nM	> 25000 nM	> 25000 nM
O=C(Nc1nc(/C=C/c2ccoc2)cs1)c1cccn1Cc1ccncc1 [Compound A222, N-(4-(2-(furan-3-yl)vinyl)thiazol-2-yl)-1-(pyridin-4-ylmethyl)-1H-pyrrole-2-carboxamide]	> 25 µM	7.7 µM	1800 nM	2270 nM	19.1 µM	348 nM	–	–	–	–
CC(C)(OCC1CCCCC1)c1csc(NC(=O)c2cccn2Cc2ccncc2)n1 [Compound A7, N-(4-(2-(cyclohexylmethoxy)propan-2-yl)thiazol-2-yl)-1-(pyridin-4-ylmethyl)-1H-pyrrole-2-carboxamide]	> 25 µM	0.808 µM	93 nM	71 nM	3.85 µM	58 nM	–	–	–	–
CC(C)OC(C)(C)c1csc(NC(=O)c2cccn2Cc2ccccc2)n1 [Compound A79, 1-benzyl-N-(4-(2-isopropoxypropan-2-yl)thiazol-2-yl)-1H-pyrrole-2-carboxamide]	> 25 µM	> 25 µM	5260 nM	4150 nM	24.9 µM	3180 nM	–	–	–	–
